According to US9040530B2, “1,2,4-triazine-6-carboxamide kinase inhibitors” (Portola Pharmaceuticals, Inc., priority 2012, dated 2015):

Molecular target: T1, full length active recombinant SYK enzyme (Homo sapiens, UniProt P43405)
T1 construct: full length active recombinant SYK enzyme (Millipore, Calif.); purchased Millipore
Assay: Inhibition of Syk tyrosine phosphorylation activity (LANCE TR-FRET kinase assay)
Assay type: biochemical
Conditions: 1 nM active SYK enzyme, 550 nM SYK-substrate, 100 μM ATP, 1 hour at room temperature
Method: The in vitro and in vivo human Syk activities of the inventive compounds can be determined by various procedures known in the art, such as a test for their ability to inhibit the activity of human plasma Syk.
Inhibition of Syk Tyrosine Phosphorylation Activity
SYK tyrosine phosphorylation activity is measured using the LANCE™ Technology developed by Perkin Elmer Life and Analytical Sciences (Boston, Mass.). LANCE™ refers to homogeneous time resolved fluorometry applications using techniques such as time-resolved fluorescence resonance energy transfer assay (TR-FRET) (see generally for procedures in Perkin Elmer Application Note—How to Optimize a Tyrosine Kinase Assay Using Time Resolved Fluorescence-Based LANCE Detection, wwww.perkinelmer.com/lifesciences). The assay principle involves detection of a phosphorylated substrate using energy transfer from a phosphospecific europium-labeled antibody to streptavidin-allophycocyanin as an acceptor.
Molecules are reconstituted in 30% DMSO and serially diluted 1:3 with the final dilution containing DMSO in the absence of the candidate molecule. The final DMSO concentration in the assay is 3%. Kinase assays are performed as a two part reaction. […] The second reaction involves termination of the kinase reaction and the simultaneous addition of the detection reagents-europium-labeled anti-phosphotyrosine reagent (Eu-W1024-PY100, Perkin Elmer, Boston, Mass.) and Streptavidin-Allophycocyanin detection reagent (SA-APC, Prozyme, CA). The kinase reaction is performed in a black U-bottom 96-well microtitre plate. […] The reaction is allowed to proceed for 1 hour at room temperature. The quench buffer contains 100 mM Tris pH 7.5, 300 mM […], 20 mM EDTA, 0.02% Brij35, and 0.5% BSA. The detection reagents are added to the reaction mixture at the following dilutions-1:500 for Eu-W1024-PY100 and 1:250 for SA-APC. The kinase reaction is terminated by the addition of 50 μL quench buffer containing the detection reagents. The detection is allowed to proceed for 1 hr at room temperature. Detection of the phosphorlated substrate in the absence and presence of inhibitors is measured in the TR-FRET instrument, Analyst HT (Molecular Probes, Sunnyvale, Calif.) and the condition for measurements are set up using CriterionHost Release 2.0 (Molecular Probes, Sunnyvale, Calif.). […] IC50s were derived by non-linear regression analysis.

Row | SMILES | IC50 [nM]
1 | Cn1cc(C#N)c2ccc(Nc3nc(N[C@H](CC4CC4)C(N)=O)nnc3C(N)=O)cc21 [Example 178, (R)-3-((1-amino-3-cyclopropyl-1-oxopropan-2-yl)amino)-5-((3-cyano-1-methyl-1H-indol-6-yl)amino)-1,2,4-triazine-6-carboxamide] | 1 to 10
2 | CC[C@@H](Nc1nnc(C(N)=O)c(Nc2cccc(C)c2)n1)C(N)=O [Example 13, (R)-3-((1-amino-1-oxobutan-2-yl)amino)-5-(m-tolylamino)-1,2,4-triazine-6-carboxamide] | 10 to 100
3 | Cn1cc2ccc(Nc3nc(N[C@@H]4CCCC[C@@H]4N)nnc3C(N)=O)cc2n1 [Example 181, 3-(((1R,2S)-2-aminocyclohexyl)amino)-5-((2-methyl-2H-indazol-6-yl)amino)-1,2,4-triazine-6-carboxamide] | 1 to 10
4 | CC(C)C[C@@H](Nc1nnc(C(N)=O)c(Nc2cccc3c2ccn3C)n1)C(N)=O [Example 88, (R)-3-((1-amino-4-methyl-1-oxopentan-2-yl)amino)-5-((1-methyl-1H-indol-4-yl)amino)-1,2,4-triazine-6-carboxamide] | 1 to 10
5 | Cc1cc(Nc2nc(N[C@@H]3CCCC[C@@H]3N)nnc2C(N)=O)ccc1F [Example 26, 3-(((1R,2S)-2-aminocyclohexyl)amino)-5-((4-fluoro-3-methylphenyl)amino)-1,2,4-triazine-6-carboxamide] | 1 to 10
6 | Cn1ncc2c(Nc3nc(N[C@@H]4CCCC[C@@H]4N)nnc3C(N)=O)ccnc21 [Example 104, 3-(((1R,2S)-2-aminocyclohexyl)amino)-5-((1-methyl-1H-pyrazolo[3,4-b]pyridin-4-yl)amino)-1,2,4-triazine-6-carboxamide] | 10 to 100
7 | Cn1ccc2c(Nc3nc(N[C@@H]4CCCC(F)(F)[C@@H]4N)nnc3C(N)=O)cccc21 [Example 94, 3-(((1R,2R)-2-amino-3,3-difluorocyclohexyl)amino)-5-((1-methyl-1H-indol-4-yl)amino)-1,2,4-triazine-6-carboxamide] | 1 to 10
8 | NC(=O)c1nnc(N[C@@H]2CCCC[C@@H]2N)nc1Nc1nc(-c2ccccc2)no1 [Example 138, 3-(((1R,2S)-2-aminocyclohexyl)amino)-5-((3-phenyl-1,2,4-oxadiazol-5-yl)amino)-1,2,4-triazine-6-carboxamide] | > 1000
9 | Cn1ccc2cc(Nc3nc(N[C@@H]4CCCC[C@@H]4N)nnc3C(N)=O)ccc21 [Example 118, 3-(((1R,2S)-2-aminocyclohexyl)amino)-5-((1-methyl-1H-indol-5-yl)amino)-1,2,4-triazine-6-carboxamide] | 1 to 10
10 | Cc1ccc(Nc2nc(N[C@H](CC(F)F)C(N)=O)nnc2C(N)=O)cc1 [Example 143, (R)-3-((1-amino-4,4-difluoro-1-oxobutan-2-yl)amino)-5-(p-tolylamino)-1,2,4-triazine-6-carboxamide] | 10 to 100
11 | NC(=O)c1nnc(N[C@@H]2CCCC[C@@H]2N)nc1Nc1ccc2c(ccc[n+]2[O-])c1 [Example 48, 6-((3-(((1R,2S)-2-aminocyclohexyl)amino)-6-carbamoyl-1,2,4-triazin-5-yl)amino)quinoline 1-oxide] | 10 to 100
12 | NC(=O)c1nnc(N[C@@H]2CCCC[C@@H]2N)nc1Nc1cncs1 [Example 133, 3-(((1R,2S)-2-aminocyclohexyl)amino)-5-(thiazol-5-ylamino)-1,2,4-triazine-6-carboxamide] | 10 to 100
13 | CC(C)C[C@@H](Nc1nnc(C(N)=O)c(Nc2ccc(Cl)c(Cl)c2)n1)C(N)=O [Example 255, (R)-3-((1-amino-4-methyl-1-oxopentan-2-yl)amino)-5-((3,4-dichlorophenyl)amino)-1,2,4-triazine-6-carboxamide] | 10 to 100
14 | CC[C@@H](Nc1nnc(C(N)=O)c(Nc2cc(C)ns2)n1)C(N)=O [Example 140, (R)-3-((1-amino-1-oxobutan-2-yl)amino)-5-((3-methylisothiazol-5-yl)amino)-1,2,4-triazine-6-carboxamide] | 10 to 100
